Structures can show the parent of a compound that is named as a salt.
The compounds below were run against T1, IAPP (Homo sapiens, UniProt P10997) (assay: MS (electrospray mass spectrometry) binding assay for IAPP). Details: Table 3B; 30 μM Aβ peptide, 150 μM compound (so in the source).
T1 construct: which is a 37 amino acid peptide, derived from a larger precursor peptide, called pro-IAPP
T1 sequence (P10997 34-70 limits assumed): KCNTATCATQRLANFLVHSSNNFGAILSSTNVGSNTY
`CC(CCNCc1ccccc1)S(=O)(=O)[O-].[Na+]` (centres unmarked) [JP, 4-(benzylamino)-2-butanesulfonic acid, sodium salt] was tested, and the “MS binding IAPP” value was “+++ (60-100% binding=(+++))”.
In the case of `CCNCCC(C)S(=O)(=O)O` (centres unmarked) [JQ, 4-(ethylamino)-2-butanesulfonic acid, sodium salt], the “MS binding IAPP” value is reported as “+++ (60-100% binding=(+++))”.
With `CC(C)(C)NCC(O)CS(=O)(=O)O` (centres unmarked) [JV, 3-(tert-butylamino)-2-hydroxy-1-propanesulfonic acid] the “MS binding IAPP” value was “++ (40-59% binding=(++))”.
With `O=S(=O)([O-])CC(O)CNC12CC3CC(CC(C3)C1)C2.[Na+]` (centres unmarked) [KB, 4-(adamantan-1-ylamino)-2-hydroxy-1-propanesulfonic acid] the “MS binding IAPP” value was “+++ (60-100% binding=(+++))”.
For `CC(C)CCNCCC(C)S(=O)(=O)O` (centres unmarked) [KH, 4-[(3-methylbutyl)amino]-2-butanesulfonic acid], the “MS binding IAPP” value was “++ (40-59% binding=(++))”.
With `O=S(=O)(O)CC(O)CNC1C2CC3CC(C2)CC1C3` (centres unmarked) [KJ, 3-(2-adamantylamino)-2-hydroxy-1-propanesulfonic acid] the “MS binding IAPP” value was “+++ (60-100% binding=(+++))”.
For `CC(CCNC1CCCCC1)S(=O)(=O)O` (centres unmarked) [KM, 4-(cyclohexylamino)-2-butanesulfonic acid], the “MS binding IAPP” value was “+++ (60-100% binding=(+++))”.
In the case of `N[C@@H](Cc1ccccc1)C(=O)NCCCS(=O)(=O)O` [KN], the “MS binding IAPP” value is reported as “++ (40-59% binding=(++))”.
With `CC(C)(C)NCCS(=O)(=O)O` [KS] the “MS binding IAPP” value was “+++ (60-100% binding=(+++))”.
For `N[C@@H](Cc1ccccc1)C(=O)NCCS(=O)(=O)O` [KT], the “MS binding IAPP” value was “++ (40-59% binding=(++))”.
In the case of `O=S(=O)(O)CCCCNC1CCCCC1` [LK, 4-(cyclohexylamino)-1-butanesulfonic acid], the “MS binding IAPP” value is reported as “++ (40-59% binding=(++))”.
`O=S(=O)(O)CCCCNC1C2CC3CC(C2)CC1C3` (centres unmarked) [LN, 4-(2-adamantyl)amino-1-butanesulfonic acid] was tested, and the “MS binding IAPP” value was “+++ (60-100% binding=(+++))”.

Same assay, conditions: Table 3D; 40 μM Aβ peptide, 400 μM compound (so in the source)
In the case of `[N-]=[N+]=NCCCS(=O)(=O)O` [HN], the “MS binding IAPP” value is reported as “− (<20%=(−))”.
With `O=S(=O)([O-])CCC[n+]1ccn(CCCS(=O)(=O)O)c1` [HP] the “MS binding IAPP” value was “− (<20%=(−))”.
In the case of `O=S(=O)(O)CCCn1cc[n+](CCCS(=O)(=O)O)c1` [HS], the “MS binding IAPP” value is reported as “− (<20%=(−))”.
`O=S(=O)(O)CCCn1cc[n+](CCCn2ccnc2)c1` [HW] was tested, and the “MS binding IAPP” value was “− (<20%=(−))”.
`O=S(=O)(O)CCCN/C=C\NCCCS(=O)(=O)O` [HX] was tested, and the “MS binding IAPP” value was “− (<20%=(−))”.
With `NCCCCC(NCCCS(=O)(=O)O)C(=O)O` (centres unmarked) [HY] the “MS binding IAPP” value was “− (<20%=(−))”.
With `O=C(O)CNCCCS(=O)(=O)O` [HZ] the “MS binding IAPP” value was “− (<20%=(−))”.
For `COC(=O)[C@@H](Cc1ccc(I)cc1)NCCCS(=O)(=O)O` [IB], the “MS binding IAPP” value was “+ (20-39% binding=(+))”.
With `C[N+](C)(CCCS(=O)(=O)[O-])CCCS(=O)(=O)O` [IF] the “MS binding IAPP” value was “− (<20%=(−))”.
`Nc1cccc2c1CCN(CCCS(=O)(=O)O)C2` [IH] was tested, and the “MS binding IAPP” value was “+ (20-39% binding=(+))”.
For `CC(=O)N(C(C)=O)c1cccc2c[n+](CCCS(=O)(=O)[O-])ccc12` [II], the “MS binding IAPP” value was “− (<20%=(−))”.
`O=[N+]([O-])c1cccc2c[n+](CCCS(=O)(=O)[O-])ccc12` [IJ] was tested, and the “MS binding IAPP” value was “+ (20-39% binding=(+))”.
With `O=S(=O)(O)CCCN1CCc2c(Br)cccc2C1` [IK] the “MS binding IAPP” value was “+ (20-39% binding=(+))”.
In the case of `O=[N+]([O-])c1ccc2c(c1)CN(CCCS(=O)(=O)O)CC2` [IL], the “MS binding IAPP” value is reported as “+ (20-39% binding=(+))”.
`Nc1ccc2c(c1)CN(CCCS(=O)(=O)O)CC2` [IM] was tested, and the “MS binding IAPP” value was “− (<20%=(−))”.
`O=S(=O)(O)CCCN1CCc2ccc(Br)cc2C1` [IN] was tested, and the “MS binding IAPP” value was “+ (20-39% binding=(+))”.
`O=S(=O)(O)CCCN1CCc2c(I)cccc2C1` [IP] was tested, and the “MS binding IAPP” value was “+ (20-39% binding=(+))”.
`O=S(=O)(O)CCCN1CCc2c([nH]c3ccc(Br)cc23)C1` [IR] was tested, and the “MS binding IAPP” value was “+ (20-39% binding=(+))”.
For `O=[N+]([O-])c1ccc2[nH]c3c(c2c1)CCN(CCCS(=O)(=O)O)C3` [IT], the “MS binding IAPP” value was “+ (20-39% binding=(+))”.
With `O=C(O)c1ccc2[nH]c3c(c2c1)CCN(CCCS(=O)(=O)O)C3` [IU] the “MS binding IAPP” value was “− (<20%=(−))”.
`O=C(NCCCCS(=O)(=O)O)OCc1ccccc1` [KV] was tested, and the “MS binding IAPP” value was “+ (20-39% binding=(+))”.
`Nc1ccc2[nH]c3c(c2c1)CCN(CCCCS(=O)(=O)O)C3` [KW] was tested, and the “MS binding IAPP” value was “+ (20-39% binding=(+))”.
With `O=S(=O)(O)CCCCN1CCc2c([nH]c3ccc(Br)cc23)C1` [KX] the “MS binding IAPP” value was “+ (20-39% binding=(+))”.
`O=[N+]([O-])c1ccc2[nH]c3c(c2c1)CCN(CCCCS(=O)(=O)O)C3` [KY] was tested, and the “MS binding IAPP” value was “+ (20-39% binding=(+))”.
With `O=C(O)c1ccc2[nH]c3c(c2c1)CCN(CCCCS(=O)(=O)O)C3` [LA] the “MS binding IAPP” value was “− (<20%=(−))”.
For `NCCCCCS(=O)(=O)O` [LP], the “MS binding IAPP” value was “+++ (75-100% binding=(+++))”.

These compounds were tested against T2, Aβ40 and Aβ42 peptides in plasma and brain of TgCRND8 mice (Homo sapiens, UniProt P05067) (assay: Short term treatment in adult transgenic CRND8 mice overexpressing βAPP: Aβ levels in plasma and brain by ELISA). Details: Brain Homogenate Vehicle Group, Day 14; TgCRND8 mice, 250 mg/kg daily.
T2 construct: ELISA using Human Aβ40 and Aβ42 Fluorometric ELISA kits from Biosource; from tissue; host or cells: plasma and brain homogenate of TgCRND8 transgenic mice (hAPP transgene)
Type: in vivo, Mouse
Source text: Transgenic mice, […]8, expressing the human amyloid precursor protein (hAPP) develop a pathology resembling Alzheimer's disease. In particular, high levels of Aβ40 and Aβ 42 have been documented in the plasma and the brain of these animals at 8-9 weeks of age, followed by early accumulation of amyloid plaques similar to the senile plaques observed in AD patients. These animals also display progressive cognitive deficits that parallel the appearance of degenerative changes. See, […], et al., J. Biol. Chem. 276, 21562-70 (2001). The short term therapeutic effect of 19 compounds of the invention was studied. […] The following abbreviations are used to designate these animals from the 3rd and 4th generation backcross in the present protocol: TgCRND8-2.B6C3F1(N3); TgCRND8-2.B6C3F1(N4). Baseline animals (Group 1) consisted of naive TgCRND8-2. B6C3F1(N3) at 11±1 weeks of age. These mice were used to determine the Aβ levels in the plasma and brain of naive transgenic animals at the initiation of treatment. […] At the end of the treatment periods, plasma and perfused brains were collected for quantification of Aβ levels. […] Plasma samples were immediately frozen and stored at -80° C. pending analysis. The brains were removed, frozen, and stored at -80° C. awaiting analysis. […] Samples were spun at 15000 g for 20 minutes and the supernatants were transferred to fresh tubes. […] The tubes were vortexed for 30 seconds and frozen at -80° C. […] Samples were thawed at room temperature, sonicated at 80° C. for 15 minutes and frozen again. This cycle was repeated 3 times to ensure homogeneity and samples were returned to -80° C. pending analysis. Aβ levels were evaluated in plasma and brain samples by ELISA using Human Aβ40 and Aβ42 Fluorometric ELISA kits from Biosource (Cat. […] In short, samples were thawed at room temperature, sonicated for 5 minutes at 80° C. (sonication for brain homogenates; no sonication for plasma samples) and kept on ice. Aβ peptides were captured using 100 μl of the diluted samples to the plate and incubated without shaking at 4° C. overnight. The samples were aspirated and the wells were rinsed 4 times with wash buffer obtained from the Biosource ELISA kit. The anti-Aβ40 or anti-Aβ42 rabbit polyclonal antiserum (specific for the Aβ40 or Aβ42 peptide) was added (100 μl) and the plate was incubated at room temperature for 2 hours with shaking. The wells were aspirated and washed 4 times before adding 100 μl of the alkaline phosphatase labeled anti-rabbit antibody and incubating at room temperature for 2 hours with shaking. The plates were then rinsed 5 times and the fluorescent substrate (100 μl) was added to the plate. The plate was incubated for 35 minutes at room temperature and the plate was read using a titer plate reader at an excitation wavelength of 460 nm and emission at 560 nm Compounds were scored based on their ability to modulate levels of Aβ peptides in the plasma and the cerebral soluble/insoluble levels in the brain. Levels of Aβ observed in the plasma and brain of treated animals were normalized using values from vehicle-treated (water) or methylcellulose-treated control groups and ranked according to the strength of the pharmacological effect. Increases in the levels of Aβ peptides are indicated using “+” symbols, while decreases in the levels of Aβ peptides are indicated using “-” symbols. The strongest effects are recorded as “+++” or “- - -” while the weakest are shown as “+” or “-”.
`CC1CC(NCCCS(=O)(=O)O)CC(C)(C)C1` (centres unmarked) [ED, 3-(3,3,5-trimethylcyclohexyl)amino-1-1-propanesulfonic acid] was tested, and the “Brain homogenate Aβ40 Change Insoluble” value was “+ (increases in the levels of Aβ (relative to untreated control) of 20 to 39% are scored as “+”)” and the “Brain homogenate Aβ40 Change Soluble” value was “− (Decreases in the levels of Aβ of 5 to 19% are scored as “−”)”.

Same assay, conditions: Brain Homogenate Vehicle Group, Day 28; TgCRND8 mice, 250 mg/kg daily
For `CC1CC(NCCCS(=O)(=O)O)CC(C)(C)C1` (centres unmarked) [ED, 3-(3,3,5-trimethylcyclohexyl)amino-1-1-propanesulfonic acid], the “Brain homogenate Aβ40 Change Insoluble” value was “−− (decreases of 20 to 38% are scored as “− −”)”, the “Brain homogenate Aβ40 Change Soluble” value was “− (Decreases in the levels of Aβ of 5 to 19% are scored as “−”)” and the “Brain homogenate Aβ42 Change Insoluble” value was “− (Decreases in the levels of Aβ of 5 to 19% are scored as “−”)”. For the same compound, the “Brain homogenate Aβ42 Change Soluble” value was “− (Decreases in the levels of Aβ of 5 to 19% are scored as “−”)”.

The compounds below were run against T1, IAPP (assay: MS (electrospray mass spectrometry) binding assay for IAPP). Details: Table 3C; 20 μM Aβ peptide, 100 μM compound (so in the source).
Source text: The ability of a therapeutic compound of the invention to inhibit an interaction between an amyloidogenic protein and a glycoprotein or proteoglycan constituent of a basement membrane can be assessed by an in vitro binding assay, such as that described in U.S. Pat. No. 5,164,295, the contents of which are hereby incorporated by reference. Alternatively, the ability of a compound to bind to an amyloidogenic protein or to inhibit the binding of a basement membrane constituent (e.g., HSPG) to an amyloidogenic protein (e.g., Aβ) can be measured using a mass spectrometry assay where soluble protein, e.g., Aβ, IAPP, β2M is incubated with the compound. A compound which binds to, e.g., Aβ, will induce a change in the mass spectrum of the protein. Exemplary protocols for a mass spectrometry assay employing Aβ and IAPP can be found in the Examples, the results of which are provided in Table 3. The protocol can readily be modified to adjust the sensitivity of the data, e.g., by adjusting the amount of protein and/or compound employed. Thus, e.g., binding might be detected for test compounds noted as not having detectable binding employing less sensitive test protocols.
The test compounds were synthesized and screened by mass spectrometry (“MS”) assays, except for selected compounds which were purchased from a commercial source. The MS assay gives data on the ability of compounds to bind to proteins, in this example, to β-amyloid and IAPP.
In the MS assay for Aβ40, samples were prepared as aqueous solutions (adding 20% ethanol if necessary to solubilize in water), 200 μM of a test compound and 20 μM of solubilized Aβ40, or 400 μM of a test compound and 40 μM of solubilized Aβ40. The pH value of each sample was adjusted to 7.4 (±0.2) by addition of 0.1% aqueous sodium hydroxide. The solutions were then analyzed by electrospray ionization mass spectrometry using a Waters ZQ 4000 mass spectrometer. Samples were introduced by direct infusion at a flow-rate of 25 μL/min within 2 hr. after sample preparation. The source temperature was kept at 70° C. and the cone voltage was 20 V for all the analysis. Data were processed using Masslynx 3.5 software. The MS assay gives data on the ability of compounds to bind to soluble Aβ, whereas the ThT, EM and CD assays give data on inhibition of fibrillogenesis. In Table 3, a blank box means that a value was not determined for that compound in that assay.
The key below describes the codes used in Table 3A to quantify the binding based on the intensity of the absorption.
In the case of `CCCC(CO)NCC(O)CS(=O)(=O)O` (centres unmarked), the “MS binding IAPP” value is reported as “++ (40-74% binding=(++))”.
With `CCCC(CO)NCCCCS(=O)(=O)O` (racemic) [LL, 4-[(dl)-1-hydroxy-2-pentyl]amino-1-butanesulfonic acid] the “MS binding IAPP” value was “++ (40-74% binding=(++))”.
For `O=S(=O)(O)CCCNC(Cc1ccccc1)c1ccccc1` (centres unmarked) [JC], the “MS binding IAPP” value was “+ (20-39% binding=(+))”.

— patent US8642801B2 (BHI Limited Partnership, priority 2003, dated 2014)
